This passage reports IC50 results from PMC3848474, “Different effects of progesterone and estradiol on chimeric and wild type aldosterone synthase in vitro” (Reproductive Biology and Endocrinology : RB&E, 2013).

This assay deals with T1, wild type aldosterone synthase (ASWT, CYP11B2) (Homo sapiens, UniProt P19099).
T1 construct: full ASWT cDNA
T1 sequence (P19099 25-503): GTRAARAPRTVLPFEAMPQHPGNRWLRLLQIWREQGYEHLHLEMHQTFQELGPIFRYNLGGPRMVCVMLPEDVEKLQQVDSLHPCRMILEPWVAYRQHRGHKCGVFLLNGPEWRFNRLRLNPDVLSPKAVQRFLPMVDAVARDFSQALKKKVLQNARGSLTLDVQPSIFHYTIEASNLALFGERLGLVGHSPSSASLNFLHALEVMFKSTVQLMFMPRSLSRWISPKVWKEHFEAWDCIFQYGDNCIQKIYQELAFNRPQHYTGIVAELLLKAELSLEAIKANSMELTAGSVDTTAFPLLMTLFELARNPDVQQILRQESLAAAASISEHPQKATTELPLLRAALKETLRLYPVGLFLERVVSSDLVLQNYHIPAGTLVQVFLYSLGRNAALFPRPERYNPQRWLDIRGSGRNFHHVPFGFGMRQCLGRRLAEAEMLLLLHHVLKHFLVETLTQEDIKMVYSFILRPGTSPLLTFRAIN
In words: aldosterone production from DOC in CYP11B2-transfected HEK-293 cells, HPLC-MS/MS; Km/Vmax shift. In kind it is cell-based.

Structures are written as SMILES.

As to `CC(=O)[C@H]1CC[C@H]2[C@@H]3CCC4=CC(=O)CC[C@]4(C)[C@H]3CC[C@]12C` [progesterone], the IC50 stood at 2240 nM.
